Measurements from the NIST ThermoML archive (doi:10.1021/je049701s).

Conditions: Liquid; for mass density: 293.1 K, 101.33 kPa; for vapor or sublimation pressure: Ebulliometric method (Recirculating still)

Cc1ccccc1C [1,2-dimethylbenzene]
Conditions	Normal boiling temperature [°C]	mass density [kg/m3]	vapor or sublimation pressure [kPa]
396.73 K	–	–	55
399.52 K	–	–	60
400.66 K	–	–	62.13
404.71 K	–	–	70
407.05 K	–	–	75
409.44 K	–	–	80.33
411.44 K	–	–	85
413.5 K	–	–	90
415.44 K	–	–	95
418.23 K	–	–	102.5
427 K	–	–	129.3
Vibrating tube method	–	879.8	–
ebulliometry	144.40	–	–

Cc1ccc(C)cc1 [1,4-dimethylbenzene]
Conditions	mass density [kg/m3]	vapor or sublimation pressure [kPa]
–	861.2	–
389.8 K	–	53.26
390.85 K	–	55
393.61 K	–	60
398.72 K	–	70
401.06 K	–	75
403.29 K	–	80
405.37 K	–	84.84
409.38 K	–	95
420.93 K	–	129.7

Cc1cccc(C)c1 [1,3-dimethylbenzene]
Conditions	mass density [kg/m3]	vapor or sublimation pressure [kPa]
–	864.2	–
362.45 K	–	21.82
366.31 K	–	25
371.49 K	–	29.94
376.31 K	–	35
380.81 K	–	40.36
384.3 K	–	45
387.84 K	–	50
389.84 K	–	53.54
393.34 K	–	60
397.71 K	–	67.97
400.96 K	–	75
403.25 K	–	80
406.5 K	–	87.74
407.5 K	–	90
409.4 K	–	95
415.54 K	–	111.8
423.34 K	–	137.3

CCc1ccccc1 [ethylbenzene]
Conditions	mass density [kg/m3]	vapor or sublimation pressure [kPa]
–	867.1	–
385.7 K	–	50
387.75 K	–	53.37
391.51 K	–	60
394.15 K	–	65
397.49 K	–	71.87
398.93 K	–	75
401.16 K	–	80
403.27 K	–	85
405.26 K	–	90
407.14 K	–	95
412.49 K	–	110.02
417 K	–	124.3
